Data from PubChem BioAssay AID212 (DTP/NCI, 2004).
Several values for one entry are separate records, joined by “and”; a condition that tells them apart may be missing. Identical values can stand only once. Records with an inconclusive call do not appear.

Test system: BDF1 mice, colon carcinoma 38 sc, T/C %
Experiment: NCI In Vivo Anticancer Drug Screen. Data for tumor model Colon Carcinoma 38 (subcutaneous) in B6D2F1 (BDF1) mice
Conditions: endpoint: median tumor weight (est.), higher = larger tumour
Method in brief: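 Ratio of survival or tumor size, compound-treated animals relative to vehicle controls, in tumor-bearing mice.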

[1] = dose: 7.5 mg/kg/injection, schedule: Q07DX002 (ip), vehicle: Klucel (hydroxypropylcellulose) (HPC)
[2] = dose: 30.0 mg/kg/injection, schedule: Q07DX002 (ip), vehicle: Klucel (hydroxypropylcellulose) (HPC)
[3] = dose: 60.0 mg/kg/injection, schedule: Q07DX002 (ip), vehicle: Klucel (hydroxypropylcellulose) (HPC)
[4] = dose: 6.25 mg/kg/injection, schedule: Q07DX002 (ip), vehicle: saline with Tween-80
[5] = dose: 12.5 mg/kg/injection, schedule: Q07DX002 (ip), vehicle: saline with Tween-80
[6] = dose: 25.0 mg/kg/injection, schedule: Q07DX002 (ip), vehicle: saline with Tween-80
[7] = dose: 50.0 mg/kg/injection, schedule: Q07DX002 (ip), vehicle: saline with Tween-80
[8] = dose: 100.0 mg/kg/injection, schedule: Q07DX002 (ip), vehicle: saline with Tween-80
[9] = dose: 200.0 mg/kg/injection, schedule: Q07DX002 (ip), vehicle: saline with Tween-80
[10] = dose: 400.0 mg/kg/injection, schedule: Q07DX002 (ip), vehicle: saline with Tween-80
[11] = dose: 25.0 mg/kg/injection, schedule: Q07DX002 (ip), vehicle: saline
[12] = dose: 50.0 mg/kg/injection, schedule: Q07DX002 (ip), vehicle: saline
[13] = dose: 100.0 mg/kg/injection, schedule: Q07DX002 (ip), vehicle: saline
[14] = dose: 200.0 mg/kg/injection, schedule: Q07DX002 (ip), vehicle: saline
[15] = dose: 400.0 mg/kg/injection, schedule: Q07DX002 (ip), vehicle: saline
[16] = dose: 800.0 mg/kg/injection, schedule: Q07DX002 (ip), vehicle: saline
[17] = dose: 1600.0 mg/kg/injection, schedule: Q07DX002 (ip), vehicle: saline
[18] = dose: 1.25 mg/kg/injection, schedule: Q07DX002 (ip), vehicle: saline
[19] = dose: 10.0 mg/kg/injection, schedule: Q07DX002 (ip), vehicle: saline

## CC(=O)O[C@H]1C(=O)[C@@]2(C)[C@H]([C@H](OC(=O)c3ccccc3)[C@]3(O)C[C@H](OC(=O)[C@H](O)[C@@H](NC(=O)c4ccccc4)c4ccccc4)C(C)=C1C3(C)C)[C@]1(OC(C)=O)CO[C@@H]1C[C@@H]2O
[1]
  T/C: 69 % of control
[2]
  T/C: 88 % of control
[3]
  T/C: 106 % of control

## CS(=O)(=O)OCCN(CCOS(C)(=O)=O)c1ccc(C=O)cc1
[4]
  T/C: 113 % of control
[5]
  T/C: 29 % of control
[6]
  T/C: 57 % of control
[7]
  T/C: 60 % of control

## CS(=O)(=O)c1ncc(Br)cn1
[4]
  T/C: 106 % of control
[5]
  T/C: 76 % of control
[7]
  T/C: 94 % of control
[8]
  T/C: 113 % of control
[9]
  T/C: 106 % of control

## O=c1s[se]c2ccccc12
dose: 3.12 mg/kg/injection, schedule: Q07DX002 (ip), vehicle: saline with Tween-80
  T/C: 73 % of control
[5]
  T/C: 90 % of control
[6]
  T/C: 83 % of control
[7]
  T/C: 117 % of control

## O=C1OCC2C(=O)OCC12 (configuration not stated)
[6]
  T/C: 103 % of control
[8]
  T/C: 46 % of control
[9]
  T/C: 120 % of control
[10]
  T/C: 69 % of control

## NC(=S)N/N=C/c1ccc(O)cn1
[11]
  T/C: 123 % of control
dose: 25.0 mg/kg/injection, schedule: Q07DX002 (ip), vehicle: suspension in saline
  T/C: 83 % of control
[12]
  T/C: 67 % of control
dose: 50.0 mg/kg/injection, schedule: Q07DX002 (ip), vehicle: suspension in saline
  T/C: 72 % of control
[13]
  T/C: 67 % of control
dose: 100.0 mg/kg/injection, schedule: Q07DX002 (ip), vehicle: suspension in saline
  T/C: 108 % of control
[14]
  T/C: 72 % of control
[15]
  T/C: 71 % of control
dose: 400.0 mg/kg/injection, schedule: Q07DX002 (ip), vehicle: suspension in saline
  T/C: 105 % of control
[16]
  T/C: 67 % of control
dose: 800.0 mg/kg/injection, schedule: Q07DX002 (ip), vehicle: suspension in saline
  T/C: 110 % of control

## O=C1C=CC(=O)O1 (tested in a mixture with another compound)
dose: 12.5 mg/kg/injection, schedule: Q07DX002 (ip), vehicle: saline
  T/C: 155 % of control
[11]
  T/C: 106 % of control
[12]
  T/C: 90 % of control
[13]
  T/C: 100 % of control
[14]
  T/C: 86 % of control
[15]
  T/C: 86 % of control

## C=C1C(=O)OC2CC1CCC1(C)OC1CCC(C)=CCCC2(C)O (configuration not stated)
dose: 3.75 mg/kg/injection, schedule: Q07DX002 (ip), vehicle: Klucel (hydroxypropylcellulose) (HPC)
  T/C: 155 % of control
[1]
  T/C: 155 % of control
[2]
  T/C: 99 % of control
[3]
  T/C: 123 % of control

## CC[C@@]1(O)C(=O)OCc2c1cc1n(c2=O)Cc2cc3cc(O)ccc3nc2-1
dose: 0.75 mg/kg/injection, schedule: Q07DX002 (ip), vehicle: saline
  T/C: 92 % of control
dose: 1.5 mg/kg/injection, schedule: Q07DX002 (ip), vehicle: saline
  T/C: 92 % of control
dose: 3.0 mg/kg/injection, schedule: Q07DX002 (ip), vehicle: saline
  T/C: 91 % of control
dose: 6.0 mg/kg/injection, schedule: Q07DX002 (ip), vehicle: saline
  T/C: 67 % of control
dose: 12.0 mg/kg/injection, schedule: Q07DX002 (ip), vehicle: saline
  T/C: 81 % of control

## c1cnc2ncncc2n1
[4]
  T/C: 88 % of control
[5]
  T/C: 83 % of control and 95 % of control
[8]
  T/C: 80 % of control and 89 % of control
[13]
  T/C: 124 % of control
[9]
  T/C: 73 % of control and 88 % of control
[14]
  T/C: 181 % of control

## C[Si](C)(C)O/C=C1/CCOC1=O
[11]
  T/C: 84 % of control
[12]
  T/C: 86 % of control
[13]
  T/C: 84 % of control
[14]
  T/C: 95 % of control
[15]
  T/C: 105 % of control
[16]
  T/C: 78 % of control

## CCCCOCN(COCCCC)C(C)Cc1ccccc1 (configuration not stated)
[6]
  T/C: 85 % of control and 106 % of control
[7]
  T/C: 120 % of control and 99 % of control

## CC(CN1CC(=O)NC(=O)C1)N1CC(=O)NC(=O)C1 (configuration not stated)
dose: 25.0 mg/kg/injection, schedule: Q07DX003 (ip), vehicle: Klucel (hydroxypropylcellulose) (HPC)
  T/C: 84 % of control and 89 % of control
dose: 50.0 mg/kg/injection, schedule: Q07DX003 (ip), vehicle: Klucel (hydroxypropylcellulose) (HPC)
  T/C: 73 % of control and 85 % of control
dose: 200.0 mg/kg/injection, schedule: Q07DX003 (ip), vehicle: Klucel (hydroxypropylcellulose) (HPC)
  T/C: 51 % of control and 54 % of control
dose: 400.0 mg/kg/injection, schedule: Q07DX003 (ip), vehicle: Klucel (hydroxypropylcellulose) (HPC)
  T/C: 9 % of control and 15 % of control

## Cc1cc(NCCCCCCCNc2cc(C)nc3cc(N)ccc23)c2ccc(N)cc2n1
dose: 1.56 mg/kg/injection, schedule: Q07DX002 (ip), vehicle: saline with Tween-80
  T/C: 78 % of control

## COC(=O)C(N)Cc1ccc(O)c(O)c1 (configuration not stated)
[12]
  T/C: 85 % of control
[13]
  T/C: 113 % of control
[14]
  T/C: 88 % of control
[15]
  T/C: 99 % of control
[16]
  T/C: 110 % of control
[17]
  T/C: 51 % of control

## C/C=C(\C)c1cc(=O)c2c(C)cc3c(c2o1)C(=O)c1c(O)c(C2CC(C)(N(C)C)C(O)C(C)O2)cc(C2CC(N(C)C)C(O)C(C)O2)c1C3=O (configuration not stated)
dose: 0.62 mg/kg/injection, schedule: Q07DX002 (ip), vehicle: saline
  T/C: 117 % of control
[18]
  T/C: 118 % of control
dose: 62.5 micrograms/kg/injection, schedule: Q07DX002 (ip), vehicle: saline
  T/C: 109 % of control and 103 % of control
dose: 250.0 micrograms/kg/injection, schedule: Q07DX002 (ip), vehicle: saline
  T/C: 81 % of control and 84 % of control
dose: 500.0 micrograms/kg/injection, schedule: Q07DX002 (ip), vehicle: saline
  T/C: 80 % of control and 85 % of control
dose: 1000.0 micrograms/kg/injection, schedule: Q07DX002 (ip), vehicle: saline
  T/C: 74 % of control and 95 % of control
dose: 2000.0 micrograms/kg/injection, schedule: Q07DX002 (ip), vehicle: saline
  T/C: 100 % of control

## O=c1[nH]c(=O)n(C2CC(O)C(CO)O2)cc1C(F)(F)F (configuration not stated)
[19]
  T/C: 83 % of control
dose: 20.0 mg/kg/injection, schedule: Q07DX002 (ip), vehicle: saline
  T/C: 77 % of control
[7]
  T/C: 100 % of control
[12]
  T/C: 114 % of control
[8]
  T/C: 117 % of control
[13]
  T/C: 84 % of control
dose: 160.0 mg/kg/injection, schedule: Q07DX002 (ip), vehicle: saline
  T/C: 118 % of control
[9]
  T/C: 101 % of control
[14]
  T/C: 95 % of control
dose: 320.0 mg/kg/injection, schedule: Q07DX002 (ip), vehicle: saline
  T/C: 156 % of control
[10]
  T/C: 94 % of control
dose: 800.0 mg/kg/injection, schedule: Q07DX002 (ip), vehicle: saline with Tween-80
  T/C: 105 % of control
[16]
  T/C: 90 % of control
dose: 1600.0 mg/kg/injection, schedule: Q07DX002 (ip), vehicle: saline with Tween-80
  T/C: 108 % of control
[17]
  T/C: 41 % of control

## CCCCCCC/C=C/C(=O)OC1C(OC2C(OC(CCCCCCC)CC(=O)OC(CCCCCCC)CC(=O)O)OC(C)C(O)C2O)OC(C)C(O)C1O (configuration not stated)
dose: 28.0 mg/kg/injection, schedule: Q07DX002 (ip), vehicle: Klucel (hydroxypropylcellulose) (HPC)
  T/C: 79 % of control
dose: 112.0 mg/kg/injection, schedule: Q07DX002 (ip), vehicle: Klucel (hydroxypropylcellulose) (HPC)
  T/C: 123 % of control
dose: 225.0 mg/kg/injection, schedule: Q07DX002 (ip), vehicle: Klucel (hydroxypropylcellulose) (HPC)
  T/C: 42 % of control

## COc1ccc(C(=O)c2no[n+]([O-])c2C(=O)c2ccc(OC)cc2)cc1
[5]
  T/C: 107 % of control
[7]
  T/C: 99 % of control and 106 % of control

## C[n+]1c(/C=N/NC(N)=S)ccc2ccccc21
[5]
  T/C: 115 % of control
[6]
  T/C: 83 % of control
[7]
  T/C: 77 % of control
[8]
  T/C: 87 % of control
[9]
  T/C: 108 % of control
[10]
  T/C: 118 % of control

## O=NN(CCCl)C(=O)NC1[C@H](O)CCC[C@@H]1O (some centres not stated)
[18]
  T/C: 68 % of control
dose: 2.5 mg/kg/injection, schedule: Q07DX002 (ip), vehicle: saline
  T/C: 53 % of control and 76 % of control
[19]
  T/C: 9 % of control and 26 % of control
